In patent US10845367B2, “Modified multispanning membrane polypeptides and methods of use thereof to screen therapeutic agents” (Abilita Bio, Inc., priority 2016, dated 2020):
≈ marks a conversion by molar mass, not a printed value. Like-named read-outs stand apart in the source and are kept apart here.

Tests used:
[1] = tested on: E. coli strains (e.g. BL21 or DH10beta); experiment: Growth of E. coli on LB medium with varying antibiotic concentrations (MIC); format: cell-based; conditions: for Antibiotic concentration to which resistance is conferred: E. coli transformed with mutated GPR55 clones; for MIC: Escherichia coli
[2] = biological target: T1, WT-GPR55 (Homo sapiens, UniProt Q9Y2T6); experiment: Genetic immunization of mice with protein boost, FACS analysis of sera on transfected cells; format: in vivo; conditions: C57BL6 mice; 50 μg cDNA in NanoTaxi, 2 DNA boosts, 1 boost with 50 μg purified protein in IFA; polyclonal sera by FACS
T1 construct: expressed in transfected cells
T1 sequence (Q9Y2T6 with tags, fused parts or gaps): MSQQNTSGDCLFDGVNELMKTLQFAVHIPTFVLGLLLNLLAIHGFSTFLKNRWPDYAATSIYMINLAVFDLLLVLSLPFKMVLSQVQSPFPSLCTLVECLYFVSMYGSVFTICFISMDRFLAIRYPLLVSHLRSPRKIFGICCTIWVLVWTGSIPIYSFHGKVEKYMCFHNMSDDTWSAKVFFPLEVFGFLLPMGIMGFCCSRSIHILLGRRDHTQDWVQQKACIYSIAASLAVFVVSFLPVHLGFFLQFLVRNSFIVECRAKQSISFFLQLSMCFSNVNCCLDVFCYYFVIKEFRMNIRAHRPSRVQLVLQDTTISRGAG
Procedure: The genetic immunization work was performed using NanoTaxi® at In-Cell-Art (Nantes, France). NanoTaxi® is a DNA delivery system optimized for genetic immunization where the delivered genetic material is formulated with a mixture of different chemical families of lipids and polymers.
The cDNA corresponding to the EMP012 of the GPR55 receptor was cloned into a pCMV-based vector and cell surface expression was confirmed via transient transfection of HEK293T and HeLa cells prior to immunogen administration.
C57BL6 mice were immunized with 50 μg EMP012 cDNA construct formulated into the NanoTaxi® for the primary challenge, followed by 2 boosts of 50 μg using the same NanoTaxi®-based formulation at two-weekly intervals, followed by 1 boost using 50 μg purified EMP012 protein in IFA adjuvant. In some instances, boosting was carried out for the in-vivo affinity maturation by somatic hypermutation of the primary antibody response. The level of immune response was assessed at regular intervals by FACS analysis using Hela cells transfected with an unrelated GPCR (left panel) or WT-GPR55 (right panel) (FIG. 7).

[3] = E. coli containing a plasmid encoding wild-type human GPR55
[4] = E. coli expressing certain constructs containing NTSR1 (rat, aa 43-424), read-out: Apparent MIC

Molecule | Antibiotic concentration to which resistance is conferred [1] [mg/L] | MIC [1, 3] [µg/mL] | MIC [1, 4] [µg/mL] | MIC ([1]; untransformed cells, LB medium) [µg/mL] | Immune response against WT-GPR55 [2]
NC[C@H]1O[C@H](O[C@H]2[C@H](O)[C@@H](O[C@H]3O[C@H](CO)[C@@H](O)[C@H](N)[C@H]3O)[C@H](N)C[C@@H]2N)[C@H](O)[C@@H](O)[C@@H]1O [kanamycin] | > 50 | ~25 (≈ 51.6 µM) | > 50 | ~10 (≈ 20.6 µM) | –
CC1(C)S[C@@H]2[C@H](NC(=O)C(C(=O)O)c3ccccc3)C(=O)N2[C@H]1C(=O)O (some centres unmarked) [carbenicillin] | > 80 | ~40 (≈ 106 µM) | > 75 | – | –
EMP012: Modified GPR55 receptor (Enabled Membrane Protein), SEQ ID NO: 2, mutated relative to wild-type GPR55; used as cDNA and purified protein (protein, listed as Homo sapiens) MSQQNTSGNCLFDGMNELMKTLQFAVHIPTFVLGLLLNLLAIHGFSTFLKNRWPDYAATSIYMINLAVFDLLLVLSLPFKIVLSQVQSPFPSLCTLVECLYFVSMYGSVFTICFISMDRFLAIRYPLLVSHLRSPRKIFGICCTIWVLVWTGSIPIYSFHGKVEKYMCFHNMSDDTWSAKVFFPLEVFGFLLPMGIMGFCCSRSIHILLGRRDHTQDWVQQKACIYSIAASLAVFVVSFLPVHLGFFLQFLVRNSFIVECRAKQSISFFLQLSKCFSNVNCCLDVFCYYFVIKEFRMNIRAHRPSRVQLVLQDTTISRGAG | – | – | – | – | robust and specific immune response
